According to publication PMC11079024, “Identification of a family of species-selective complex I inhibitors as potential anthelmintics” (Nature Communications, 2024):
“And” between values parts separate entries of the source, which are not always exact repeats. Equal entries are not always repeated. Where two headings read alike, the source gives them in different places.

Legend:
[1] = system: L1 wild-type C. elegans; assay: 15-hour motility assay with drug alone (no KCN); format: cell-based, Caenorhabditis elegans; conditions: without KCN, 15-hour; for Value relative to DMSO control, drug alone (without KCN), Mean: mean of replicates; for Value relative to DMSO control, drug alone (without KCN): single replicates
[2] = system: L1 wild-type C. elegans; conditions: for KCN survival assay value relative to DMSO control, Mean / KCN survival assay value relative to DMSO control: drug + KCN, 15-hour; for KCN survival assay value relative to DMSO control, Mean: mean of replicates; for KCN survival assay value relative to DMSO control: single replicates; for LC50: caenorhabditis elegans
[3] = system: L1 wild-type C. elegans; assay: whole plant or invertebrate; conditions: Caenorhabditis elegans, 15 h, read-out: C. elegans KCN survival assay LC50
[4] = biological target: C. elegans (N2) complex I (NADH:ubiquinone oxidoreductase) (Caenorhabditis elegans, UniProt P24887+Q93873+Q94360); assay: biochemical; format: biochemical; conditions: for % Activity Complex I: 100 µM compound, relative to solvent control, mean (SEM); for Percent in vitro activity, Complex I (single replicate Rep1-Rep4) / Percent in vitro activity, Complex I (Mean): 100 μM of NPD compound, C. elegans mitochondria; for Percent in vitro activity, Complex I (single replicate Rep1-Rep4): individual biological replicates; for Percent in vitro activity, Complex I (Mean): mean of four biological replicates
Sequence of C. elegans (N2) complex I (NADH:ubiquinone oxidoreductase) (Q94360 17-199): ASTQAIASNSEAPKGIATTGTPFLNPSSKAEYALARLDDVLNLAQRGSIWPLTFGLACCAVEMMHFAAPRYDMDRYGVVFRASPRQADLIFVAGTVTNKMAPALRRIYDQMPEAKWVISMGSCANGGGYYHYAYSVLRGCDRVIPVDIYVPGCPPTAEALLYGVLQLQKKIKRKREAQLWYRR
Sequence of C. elegans (N2) complex I (NADH:ubiquinone oxidoreductase) (P24887 whole entry): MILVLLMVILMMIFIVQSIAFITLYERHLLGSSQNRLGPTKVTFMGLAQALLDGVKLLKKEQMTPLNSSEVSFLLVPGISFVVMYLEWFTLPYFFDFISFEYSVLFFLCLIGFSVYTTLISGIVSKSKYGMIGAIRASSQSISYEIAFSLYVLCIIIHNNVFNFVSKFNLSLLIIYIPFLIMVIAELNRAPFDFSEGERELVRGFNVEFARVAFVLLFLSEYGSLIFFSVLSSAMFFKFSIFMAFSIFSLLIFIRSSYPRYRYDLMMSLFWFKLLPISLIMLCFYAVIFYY
Sequence of C. elegans (N2) complex I (NADH:ubiquinone oxidoreductase) (Q93873 31-482): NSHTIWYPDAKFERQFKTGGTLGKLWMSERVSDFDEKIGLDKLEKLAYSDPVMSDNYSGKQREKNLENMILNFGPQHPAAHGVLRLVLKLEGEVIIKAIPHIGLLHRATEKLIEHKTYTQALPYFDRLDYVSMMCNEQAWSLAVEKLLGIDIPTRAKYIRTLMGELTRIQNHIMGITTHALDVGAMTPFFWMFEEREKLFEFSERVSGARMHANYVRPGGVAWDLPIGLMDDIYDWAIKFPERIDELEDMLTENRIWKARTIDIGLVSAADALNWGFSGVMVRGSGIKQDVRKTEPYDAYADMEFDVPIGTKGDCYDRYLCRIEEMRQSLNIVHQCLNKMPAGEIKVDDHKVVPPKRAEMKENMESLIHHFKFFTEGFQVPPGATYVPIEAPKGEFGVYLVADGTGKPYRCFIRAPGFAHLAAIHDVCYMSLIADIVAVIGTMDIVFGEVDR
Procedure, shortened: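 Compounds were tested against freeze-thawed isolated mitochondria (0.2 mg/mL protein). NADH:decylubiquinone activity was monitored via DCIP absorbance at 600 nm, and the initial linear slope was normalised to solvent controls.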

[5] = biological target: C. elegans complex II (succinate dehydrogenase) (Caenorhabditis elegans, UniProt O62215+P41956+Q09545); assay: In vitro complex II activity assay, C. elegans mitochondria; format: biochemical; conditions: for % Activity Complex II: 100 µM compound, relative to solvent control, mean (SEM); for Percent in vitro activity, Complex II (single replicate Rep1-Rep4) / Percent in vitro activity, Complex II (Mean): 100 μM of NPD compound, C. elegans mitochondria; for Percent in vitro activity, Complex II (single replicate Rep1-Rep4): individual biological replicates; for Percent in vitro activity, Complex II (Mean): mean of four biological replicates
Sequence of C. elegans complex II (succinate dehydrogenase) (P41956 30-182): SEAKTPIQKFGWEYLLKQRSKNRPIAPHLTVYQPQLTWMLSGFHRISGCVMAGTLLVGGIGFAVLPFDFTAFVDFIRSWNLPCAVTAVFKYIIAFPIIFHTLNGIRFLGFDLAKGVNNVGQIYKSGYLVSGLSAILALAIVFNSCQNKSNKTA
Sequence of C. elegans complex II (succinate dehydrogenase) (Q09545 22-298): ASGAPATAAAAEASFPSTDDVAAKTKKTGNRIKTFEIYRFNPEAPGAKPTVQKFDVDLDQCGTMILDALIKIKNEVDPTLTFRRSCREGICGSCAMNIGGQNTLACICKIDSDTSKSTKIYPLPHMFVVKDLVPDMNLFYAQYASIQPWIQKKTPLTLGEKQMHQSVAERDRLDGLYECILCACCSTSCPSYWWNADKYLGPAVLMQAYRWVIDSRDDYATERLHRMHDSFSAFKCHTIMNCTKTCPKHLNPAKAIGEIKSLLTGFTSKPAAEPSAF
Sequence of C. elegans complex II (succinate dehydrogenase) (Q09508 32-646, further chain): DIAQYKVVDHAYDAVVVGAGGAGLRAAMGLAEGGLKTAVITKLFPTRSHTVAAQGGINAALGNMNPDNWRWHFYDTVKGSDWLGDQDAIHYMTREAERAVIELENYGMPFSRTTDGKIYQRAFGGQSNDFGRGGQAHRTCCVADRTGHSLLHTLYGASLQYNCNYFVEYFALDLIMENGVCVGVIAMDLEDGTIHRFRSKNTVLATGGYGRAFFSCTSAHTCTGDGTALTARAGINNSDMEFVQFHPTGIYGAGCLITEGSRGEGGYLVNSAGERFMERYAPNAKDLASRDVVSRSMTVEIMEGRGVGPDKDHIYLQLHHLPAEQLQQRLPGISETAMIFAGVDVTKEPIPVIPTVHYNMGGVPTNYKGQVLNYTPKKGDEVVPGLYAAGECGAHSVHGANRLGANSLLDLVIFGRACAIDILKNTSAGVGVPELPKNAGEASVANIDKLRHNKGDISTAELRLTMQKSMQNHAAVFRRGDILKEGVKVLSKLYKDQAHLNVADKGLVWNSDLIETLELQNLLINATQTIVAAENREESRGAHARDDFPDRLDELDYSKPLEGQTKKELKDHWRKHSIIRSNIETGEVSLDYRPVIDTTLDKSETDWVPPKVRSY
Sequence of C. elegans complex II (succinate dehydrogenase) (O62215 31-145): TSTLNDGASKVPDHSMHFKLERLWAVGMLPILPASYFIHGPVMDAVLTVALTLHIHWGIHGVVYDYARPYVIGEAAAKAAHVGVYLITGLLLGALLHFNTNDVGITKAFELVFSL
Procedure, shortened: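 Mitochondria isolated from adult C. elegans were diluted to 0.2 mg/mL protein and assayed for complex II by the DCIP-coupled method. A600 was read every 30 s over 15 min, with initial linear slope expressed as percent of solvent control. Screening was at 100 μM (≥3 biological replicates), followed by dose-response.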

[6] = system: C. elegans complex III (decylubiquinol-cytochrome C reductase); assay: In vitro complex III activity assay, C. elegans mitochondria; format: biochemical, Caenorhabditis elegans; conditions: for % Activity Complex III: 100 µM compound, relative to solvent control, mean (SEM); for Percent in vitro activity, Complex III (single replicate Rep1-Rep4) / Percent in vitro activity, Complex III (Mean): 100 μM of NPD compound, C. elegans mitochondria; for Percent in vitro activity, Complex III (single replicate Rep1-Rep4): individual biological replicates; for Percent in vitro activity, Complex III (Mean): mean of four biological replicates
Protocol: (§1) Mitochondria were isolated from the following free-living nematode strains: C. elegans—N2, CB3474, ECA882, ECA917, ECA1075, ECA1080; C. briggsae—AF16; P. pacificus—PS312; and P. hermaphrodita—B178. With the exception of the P. hermaphrodita strain B178, adult worms of each strain were grown in bulk through liquid culture to obtain mitochondria in sufficient quantities. Due to poor growth in liquid media, mixed stage populations of P. hermaphrodita were washed off and collected from NGM plates seeded with OP50. The isolation of mitochondria from all free-living nematode strains followed the protocol previously outlined in Burns et al.[24]. In brief, a 1 L saturated culture of E. coli HB101 was concentrated 20-fold in 50 mL complete S-medium. ~500,000 L1 worms synchronized from an embryo preparation performed the day prior were added to the S-media/HB101 suspension and grown to adulthood over the course of 3.5 days at 20 °C with shaking at 165 rpm. Following growth, worms were collected in 10 ×15 mL conical tubes and washed 7 times in M9 buffer. Worm suspensions were then combined into a single 15 mL conical tube and diluted to a final volume of 15 mL with M9 buffer. 1 mL aliquots of worm suspension were then distributed to 15 × 1.5 mL screw-cap microcentrifuge tubes and were pelleted at 500 g for 1 min. Excess M9 was aspirated without disturbing the worm pellet. 600 μL ice-cold isolate buffer A (250 mM sucrose, 10 mM Tris (pH 7.5), 1 mM EDTA, 1 mM PMSF (freshly prepared)) and 300 μL cold glass beads were then added to each tube. Tubes were incubated on ice for 10 min, and the worms were then lysed by bead beating (6 x 30 s, with 1 min cooling intervals). Tubes containing worm lysate were centrifuged at 1,000 g for 10 min at 4 °C and the supernatant was transferred to 15 new microcentrifuge tubes on ice. The tubes were centrifuged a second time at 1,000 g for 10 min at 4 °C and the supernatant was once again transferred to 15 new microcentrifuge tubes on ice. These tubes were then centrifuged at 16,000 g for 10 min at 4 °C. The resulting mitochondrial pellet was washed twice by re-suspension in 300 μL of ice-cold isolate buffer B (250 mM sucrose, 10 mM Tris (pH 7.5), 1 mM EDTA). Following the final wash, isolation buffer was aspirated from each tube and the pellets were flash-frozen in ethanol/dry ice and stored at −80 °C until needed.
(§2) The enzymatic activities of individual ETC complexes (I-IV) were assessed spectrophotometrically in isolated mitochondria using a Varioskan LUX Multimode plate reader (ThermoFisher Scientific). Mitochondrial pellets previously isolated were thawed on ice and resuspended in ice-cold isolation buffer (250 mM sucrose, 10 mM Tris (pH 7.5), 1 mM EDTA). The BCA assay (Walker, 1994) was used to quantify the protein concentration of mitochondria suspensions; solutions were diluted to a concentration of 0.2 mg/mL for use in all assays. For the complex I assay, mitochondria pellets were freeze-thawed on ice three times to increase enzyme accessibility. […] 20 μL mitochondria suspension was then added/mixed with a pipette to initiate the reaction. Immediately following the addition of mitochondria, absorbance was measured (complex I and II: 600 nm; complex III and IV: 550 nm) in 30 s intervals over 15 min. Enzymatic activity was determined in each reaction by plotting absorbance versus time and calculating the slope of the curve during the initial linear phase of the reaction. […] Percent activity of each complex was calculated by dividing the enzyme-specific activity of each well by the enzyme-specific activity of the corresponding solvent controls.
Antimycin A-sensitive complex III (decylubiquinol-cytochrome C […]) activity was determined by measuring the reduction of cytochrome C (CytC) as optimized in Luo et al.[59]. Decylubiquinol for complex III assays was prepared fresh as described in Janssen and Boyle, 2019[60].

[7] = system: C. elegans complex IV (cytochrome C oxidase); assay: In vitro complex IV activity assay, C. elegans mitochondria; format: biochemical, Caenorhabditis elegans; conditions: for % Activity Complex IV: 100 µM compound, relative to solvent control, mean (SEM); for Percent in vitro activity, Complex IV (single replicate Rep1-Rep4) / Percent in vitro activity, Complex IV (Mean): 100 μM of NPD compound, C. elegans mitochondria; for Percent in vitro activity, Complex IV (single replicate Rep1-Rep4): individual biological replicates; for Percent in vitro activity, Complex IV (Mean): mean of four biological replicates
Protocol: as §1, §2
Complex IV (cytochrome C oxidase) activity was determined by following the oxidation of CytC in the protocol outlined by Janssen and Boyle, 2019[60]. Reduced CytC was prepared fresh by adding 1 μL increments of 1 M dithiothreitol to a 1 mM solution of CytC and vortexing. A colour change from brown to orange/pink signals when CytC has been reduced.

[8] = system: C. elegans; assay: C. elegans chemical screens of RIKEN NPD libraries at 50 μM (hit identification in KCN survival and development/viability assays); format: cell-based, Caenorhabditis elegans; conditions: screened at 50 μM in triplicate; hit = modified z-score < −3; KCN = KCN survival assay, Dev. & Viability = development/viability assay
[9] = system: HEK293 cells; conditions: read-out: HEK293 Cell Viability Assay LC50; 2 days exposure

O=C(Nc1cc(Cl)cc(Cl)c1O)c1c(O)c(Cl)cc(Cl)c1Cl [Oxyclozanide]
Value relative to DMSO control, drug alone (without KCN), Mean ([1]; 0.025 µM): 0.970
Value relative to DMSO control, drug alone (without KCN) ([1]; 0.025 µM): 1.075 and 0.779 and 1.056
Value relative to DMSO control, drug alone (without KCN), Mean ([1]; 0.05 µM): 1.040
Value relative to DMSO control, drug alone (without KCN) ([1]; 0.05 µM): 0.978 and 1.142 and 1.000
Value relative to DMSO control, drug alone (without KCN), Mean ([1]; 0.1 µM): 1.014
Value relative to DMSO control, drug alone (without KCN) ([1]; 0.1 µM): 1.026 and 1.091 and 0.926
Value relative to DMSO control, drug alone (without KCN), Mean ([1]; 0.2 µM): 0.862
Value relative to DMSO control, drug alone (without KCN) ([1]; 0.2 µM): 0.850 and 0.960 and 0.775
Value relative to DMSO control, drug alone (without KCN), Mean ([1]; 0.4 µM): 0.811
Value relative to DMSO control, drug alone (without KCN) ([1]; 0.4 µM): 0.730 and 0.844 and 0.861
Value relative to DMSO control, drug alone (without KCN), Mean ([1]; 0.8 µM): 0.863
Value relative to DMSO control, drug alone (without KCN) ([1]; 0.8 µM): 0.803 and 1.008 and 0.777
Value relative to DMSO control, drug alone (without KCN), Mean ([1]; 3.1 µM): 0.927
Value relative to DMSO control, drug alone (without KCN) ([1]; 3.1 µM): 0.899 and 1.068 and 0.814
Value relative to DMSO control, drug alone (without KCN), Mean ([1]; 6.3 µM): 0.856
Value relative to DMSO control, drug alone (without KCN) ([1]; 6.3 µM): 0.946 and 0.940 and 0.683
Value relative to DMSO control, drug alone (without KCN), Mean ([1]; 12.5 µM): 0.986
Value relative to DMSO control, drug alone (without KCN) ([1]; 12.5 µM): 0.842 and 1.234 and 0.881
Value relative to DMSO control, drug alone (without KCN), Mean ([1]; 25 µM): 0.843
Value relative to DMSO control, drug alone (without KCN) ([1]; 25 µM): 0.680 and 1.053 and 0.797
KCN survival assay value relative to DMSO control, Mean ([2]; 0.025 µM): 1.036
KCN survival assay value relative to DMSO control ([2]; 0.025 µM): 1.103 and 1.007 and 0.999
KCN survival assay value relative to DMSO control, Mean ([2]; 0.05 µM): 1.033
KCN survival assay value relative to DMSO control ([2]; 0.05 µM): 1.103 and 1.025 and 0.972
KCN survival assay value relative to DMSO control, Mean ([2]; 0.1 µM): 0.765
KCN survival assay value relative to DMSO control ([2]; 0.1 µM): 0.944 and 0.659 and 0.693
KCN survival assay value relative to DMSO control, Mean ([2]; 0.2 µM): 0.371
KCN survival assay value relative to DMSO control ([2]; 0.2 µM): 0.478 and 0.398 and 0.238
KCN survival assay value relative to DMSO control, Mean ([2]; 0.4 µM): 0.077
KCN survival assay value relative to DMSO control, Mean ([2]; 0.8 µM): 0.012
KCN survival assay value relative to DMSO control, Mean ([2]; 3.1 µM): 0.000
KCN survival assay value relative to DMSO control ([2]; 3.1 µM): 0.000
KCN survival assay value relative to DMSO control, Mean ([2]; 6.3 µM): 0.000
KCN survival assay value relative to DMSO control ([2]; 6.3 µM): 0.000
KCN survival assay value relative to DMSO control, Mean ([2]; 12.5 µM): 0.0006
KCN survival assay value relative to DMSO control, Mean ([2]; 25 µM): 0.000
KCN survival assay value relative to DMSO control ([2]; 25 µM): 0.000
LC50 [3]: 0.158 µM

CCCCCCCCCCCCCCCc1cccc(O)c1C(=O)O [Anacardic acid]
% Activity Complex I [4]: 92.95 (1.67) %
Percent in vitro activity, Complex I (single replicate Rep1-Rep4) [4]: 100.303% and 96.789% and 88.185% and 86.534%
Percent in vitro activity, Complex I (Mean) [4]: 92.953%
% Activity Complex II [5]: 87.62 (1.34) %
Percent in vitro activity, Complex II (single replicate Rep1-Rep4) [5]: 86.093% and 91.144% and 92.500% and 80.735%
Percent in vitro activity, Complex II (Mean) [5]: 87.618%
% Activity Complex III [6]: 0.00 (0.00) %
Percent in vitro activity, Complex III (single replicate Rep1-Rep4) [6]: 0.000%
Percent in vitro activity, Complex III (Mean) [6]: 0.000%
% Activity Complex IV [7]: 15.80 (1.15) %
Percent in vitro activity, Complex IV (single replicate Rep1-Rep4) [7]: 11.285% and 16.095% and 13.805% and 22.025%
Percent in vitro activity, Complex IV (Mean) [7]: 15.803%
Hit Type [8]: KCN
LC50 [2]: 3.35 µM
CC50 [9]: > 50 µM

COc1ccc(N=c2cc(-c3ccc(OC)cc3)oc3ccc(O)cc23)cc1 [NPD8034]
% Activity Complex I [4]: 99.30 (2.57) %
Percent in vitro activity, Complex I (single replicate Rep1-Rep4) [4]: 99.316% and 113.812% and 92.579% and 91.475%
Percent in vitro activity, Complex I (Mean) [4]: 99.295%
% Activity Complex II [5]: 89.02 (4.77) %
Percent in vitro activity, Complex II (single replicate Rep1-Rep4) [5]: 117.368% and 83.101% and 77.239% and 78.358%
Percent in vitro activity, Complex II (Mean) [5]: 89.016%
% Activity Complex III [6]: 95.08 (1.51) %
Percent in vitro activity, Complex III (single replicate Rep1-Rep4) [6]: 95.115% and 96.990% and 101.326% and 86.891%
Percent in vitro activity, Complex III (Mean) [6]: 95.080%
% Activity Complex IV [7]: 96.04 (2.78) %
Percent in vitro activity, Complex IV (single replicate Rep1-Rep4) [7]: 88.996% and 91.859% and 90.669% and 112.640%
Percent in vitro activity, Complex IV (Mean) [7]: 96.041%
Hit Type [8]: KCN
LC50 [2]: 12 µM
CC50 [9]: 11.2 µM
